Patent US9120749B2, “Quinoline derivatives and MELK inhibitors containing the same” (ONCOTHERAPY SCIENCE, INC., priority 2010, dated 2015)

Assays:
MELK = MELK (Homo sapiens, UniProt Q14680); test: Kinase assay: MELK activity, phosphorylation of FITC-labeled histone H3 peptide measured by IMAP fluorescence polarization; assay type: biochemical; conditions: read-out: IC50 (μM) (kinase assay)
Summary of the method: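 A FITC-labelled histone H3 peptide served as substrate, with compounds serially diluted to 1% DMSO final. Reactions were stopped with three volumes of IMAP progressive binding solution. After 0.5 h at room temperature, fluorescence polarization was read.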

T47D cells = test: Cell-based assay: anti-proliferative activity, Cell Counting Kit-8, 72 hours (T47D); conditions: Homo sapiens, T47D, 72 h
Summary of the method: (§1)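 T47D, A549 and BT-549 cells, with MELK-negative HT-1197 as control (MELK status checked by western blot), seeded at 2,000–3,000 cells/well. Growth measured by CCK-8 72 hours after inhibitor exposure; IC50 values calculated.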

DU4475 cells = test: Cell-based assay: anti-proliferative activity, Cell Counting Kit-8, 72 hours (DU4475); conditions: Homo sapiens, DU-4475, 72 h
A549 cells = test: Cell-based assay: anti-proliferative activity, Cell Counting Kit-8, 72 hours (A549); conditions: Homo sapiens, A549, 72 h, 72 hours
Summary of the method: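 Cell Counting Kit-8 read-out of A549 growth after 72 hours of inhibitor exposure, cells plated in 96-well format. Values reported as IC50.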

HT-1197 cells = test: Cell-based assay: anti-proliferative activity, Cell Counting Kit-8, 72 hours (HT-1197, negative control without MELK expression); conditions: HT1197 cells (negative control, no MELK expression), 72 hours
Summary of the method: as §1

Sequence of MELK (Q14680 whole entry, looked up): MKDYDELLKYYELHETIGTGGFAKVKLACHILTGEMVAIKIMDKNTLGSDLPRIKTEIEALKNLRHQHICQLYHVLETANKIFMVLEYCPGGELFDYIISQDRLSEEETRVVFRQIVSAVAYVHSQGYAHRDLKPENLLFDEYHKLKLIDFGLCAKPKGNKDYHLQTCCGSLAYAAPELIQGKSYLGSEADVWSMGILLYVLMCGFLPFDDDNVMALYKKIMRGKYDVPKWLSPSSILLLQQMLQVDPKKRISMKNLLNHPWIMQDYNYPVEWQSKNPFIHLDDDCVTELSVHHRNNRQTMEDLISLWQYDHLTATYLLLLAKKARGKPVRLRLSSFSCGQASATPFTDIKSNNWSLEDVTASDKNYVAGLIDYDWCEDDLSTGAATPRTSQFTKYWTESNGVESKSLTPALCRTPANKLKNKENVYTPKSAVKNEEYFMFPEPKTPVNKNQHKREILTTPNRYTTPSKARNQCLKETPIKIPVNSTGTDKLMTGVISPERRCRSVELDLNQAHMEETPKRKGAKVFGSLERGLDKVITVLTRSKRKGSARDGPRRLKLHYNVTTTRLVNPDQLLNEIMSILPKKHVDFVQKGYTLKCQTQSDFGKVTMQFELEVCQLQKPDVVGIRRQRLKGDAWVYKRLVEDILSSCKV

## COc1cc(-c2ccc3ncc(C(=O)C4CC4)c(Nc4ccc(C(O)CN(C)C)cc4)c3c2)cc(Cl)c1O (stereo not drawn) [Example 708, (6-(3-chloro-4-hydroxy-5-methoxyphenyl)-4-(4-(2-(dimethylamino)-1-hydroxyethyl)phenylamino)quinolin-3-yl)(cyclopropyl)methanone]
MELK
  IC50: 0.0065 µM
T47D cells
  IC50: 0.41 µM
DU4475 cells
  IC50: 0.25 µM
A549 cells
  IC50: 0.3 µM
HT-1197 cells; Homo sapiens, HT1197, 72 h
  IC50: 4.6 µM

## CN(C)CC(O)c1ccc(Nc2c(C(=O)C3CC3)cnc3ccc(-c4cc(Cl)c(O)c(Cl)c4)cc23)cc1 (stereo not drawn) [Example 709, Cyclopropyl{6-(3,5-dichloro-4-hydroxyphenyl)-4-[4-(2-(dimethylamino)-1-hydroxyethyl)phenylamino]quinolin-3-yl}methanone]
MELK
  IC50: 0.0035 µM
T47D cells
  IC50: 0.2 µM
DU4475 cells
  IC50: 0.077 µM
A549 cells
  IC50: 0.14 µM
HT-1197 cells; Homo sapiens, HT1197, 72 h
  IC50: 3.8 µM

## CN(C)CCOc1ccc(Nc2c(C(=O)C3CC3)cnc3ccc(-c4cc(F)c(O)c(Cl)c4)cc23)cn1 [Example 710, (6-(3-Chloro-5-fluoro-4-hydroxyphenyl)-4-(6-(2-(dimethylamino)ethoxy)pyridin-3-ylamino)quinolin-3-yl)(cyclopropyl)methanone]
MELK
  IC50: 0.0069 µM
T47D cells
  IC50: 0.15 µM
DU4475 cells
  IC50: 0.083 µM
A549 cells
  IC50: 0.09 µM
HT-1197 cells; Homo sapiens, HT1197, 72 h
  IC50: 2 µM

## CN(C)CCOc1ccc(Nc2c(C(=O)C3CC3)cnc3ccc(-c4cc(Cl)c(O)c(Cl)c4)cc23)cn1 [Example 711, Cyclopropyl(6-(3,5-dichloro-4-hydroxyphenyl)-4-(6-(2-(dimethylamino)ethoxy)pyridin-3-ylamino)quinolin-3-yl)methanone]
MELK
  IC50: 0.0032 µM
T47D cells
  IC50: 0.22 µM
DU4475 cells
  IC50: 0.073 µM
A549 cells
  IC50: 0.11 µM
HT-1197 cells; Homo sapiens, HT1197, 72 h
  IC50: 5.7 µM

## COc1cc(-c2ccc3ncc(C(=O)C4CC4)c(Nc4ccc(OCCN(C)C)nc4)c3c2)cc(Cl)c1O [Example 712, (6-(3-chloro-4-hydroxy-5-methoxyphenyl)-4-(6-(2-(dimethylamino)ethoxy)pyridin-3-ylamino)quinolin-3-yl)(cyclopropyl)methanone]
MELK
  IC50: 0.0036 µM
T47D cells
  IC50: 0.31 µM
DU4475 cells
  IC50: 0.34 µM
A549 cells
  IC50: 0.31 µM
HT-1197 cells; Homo sapiens, HT1197, 72 h
  IC50: 5.4 µM

## CCC(=O)c1cnc2ccc(-c3cc(Cl)c(O)c(OC)c3)cc2c1N[C@H]1CC[C@H](CN(C)C)CC1 [Example 713]
MELK
  IC50: 0.0024 µM
T47D cells
  IC50: 0.2 µM
DU4475 cells
  IC50: 0.15 µM
A549 cells
  IC50: 0.18 µM
HT-1197 cells; Homo sapiens, HT1197, 72 h
  IC50: 4.9 µM

## CCC(=O)c1cnc2ccc(-c3cc(F)c(O)c(Cl)c3)cc2c1N[C@H]1CC[C@H](CN(C)C)CC1 [Example 714, 1-(6-(3-chloro-5-fluoro-4-hydroxyphenyl)-4-((trans-4-((dimethylamino)methyl)cyclohexyl)amino)quinolin-3-yl)propan-1-one]
MELK
  IC50: 0.004 µM
T47D cells
  IC50: 0.054 µM
DU4475 cells
  IC50: 0.067 µM
A549 cells
  IC50: 0.11 µM
HT-1197 cells; Homo sapiens, HT1197, 72 h
  IC50: 0.55 µM

## CCC(=O)c1cnc2ccc(-c3cc(Cl)c(O)c(Cl)c3)cc2c1N[C@H]1CC[C@H](CN(C)C)CC1 [Example 715, 1-(6-(3,5-dichloro-4-hydroxyphenyl)-4-((trans-4-((dimethylamino)methyl)cyclohexyl)amino)quinolin-3-yl)propan-1-one]
MELK
  IC50: 0.0015 µM
T47D cells
  IC50: 0.087 µM
DU4475 cells
  IC50: 0.046 µM
A549 cells
  IC50: 0.11 µM
HT-1197 cells; Homo sapiens, HT1197, 72 h
  IC50: 0.84 µM

## CC(=O)c1cnc2ccc(-c3cc(F)c(O)c(Cl)c3)cc2c1N[C@@H]1CC[C@@H](CN(C)C)C1 [Example 717, 1-(6-(3-chloro-5-fluoro-4-hydroxyphenyl)-4-((1R,3R)-3-((dimethylamino)methyl)cyclopentylamino)quinolin-3-yl)ethanone]
MELK
  IC50: 0.011 µM
T47D cells
  IC50: 0.42 µM
DU4475 cells
  IC50: 0.34 µM
A549 cells
  IC50: 0.65 µM
HT-1197 cells; Homo sapiens, HT1197, 72 h
  IC50: 2 µM

## CC(=O)c1cnc2ccc(-c3cc(Cl)c(O)c(Cl)c3)cc2c1N[C@@H]1CC[C@@H](CN(C)C)C1 [Example 718, 1-(6-(3,5-dichloro-4-hydroxyphenyl)-4-((1R,3R)-3-((dimethylamino)methyl)cyclopentylamino)quinolin-3-yl)ethanone]
MELK
  IC50: 0.0055 µM
T47D cells
  IC50: 0.36 µM
DU4475 cells
  IC50: 0.19 µM
A549 cells
  IC50: 0.44 µM
HT-1197 cells; Homo sapiens, HT1197, 72 h
  IC50: 2 µM

## O=C(c1cnc2ccc(-c3cc(F)c(O)c(Cl)c3)cc2c1NC1CCNCC1)C1CC1 [Example 719, (6-(3-chloro-5-fluoro-4-hydroxyphenyl)-4-(piperidin-4-ylamino)quinolin-3-yl)(cyclopropyl)methanone]
MELK
  IC50: 0.0092 µM
T47D cells
  IC50: 0.32 µM
DU4475 cells
  IC50: 0.17 µM
A549 cells
  IC50: 0.69 µM
HT-1197 cells; Homo sapiens, HT1197, 72 h
  IC50: 10 µM

## CC(=O)c1cnc2ccc(-c3cc(Cl)c(O)c(Cl)c3)cc2c1Nc1ccc2c(c1)CCC2N(C)C (stereo not drawn) [Example 720, 1-(6-(3,5-dichloro-4-hydroxyphenyl)-4-((1-(dimethylamino)-2,3-dihydro-1H-inden-5-yl)amino)quinolin-3-yl)ethanone]
MELK
  IC50: 0.0033 µM
T47D cells
  IC50: 0.059 µM
DU4475 cells
  IC50: 0.032 µM
A549 cells
  IC50: 0.063 µM
HT-1197 cells; Homo sapiens, HT1197, 72 h
  IC50: 0.38 µM

## CC(=O)c1cnc2ccc(-c3cc(F)c(O)c(F)c3)cc2c1N[C@H]1CC[C@H](CN(C)C)CC1 [Example 721]
MELK
  IC50: 0.035 µM
T47D cells
  IC50: 0.15 µM
DU4475 cells
  IC50: 0.22 µM
A549 cells
  IC50: 0.32 µM
HT-1197 cells; Homo sapiens, HT1197, 72 h
  IC50: 3.4 µM

## COc1cc(-c2ccc3ncc(C(=O)C4CC4)c(Nc4ccc(OCCN)nc4)c3c2)cc(Cl)c1O [Example 722, (4-(6-(2-aminoethoxy)pyridin-3-ylamino)-6-(3-chloro-4-hydroxy-5-methoxyphenyl)quinolin-3-yl)(cyclopropyl)methanone]
MELK
  IC50: 0.0043 µM
T47D cells
  IC50: 0.19 µM
DU4475 cells
  IC50: 0.19 µM
A549 cells
  IC50: 0.32 µM
HT-1197 cells; Homo sapiens, HT1197, 72 h
  IC50: 2.3 µM

## NCCOc1ccc(Nc2c(C(=O)C3CC3)cnc3ccc(-c4cc(Cl)c(O)c(Cl)c4)cc23)cn1 [Example 723, (4-(6-(2-Aminoethoxy)pyridin-3-ylamino)-6-(3,5-dichloro-4-hydroxyphenyl)quinolin-3-yl)(cyclopropyl)methanone]
MELK
  IC50: 0.0019 µM
T47D cells
  IC50: 0.099 µM
DU4475 cells
  IC50: 0.028 µM
A549 cells
  IC50: 0.23 µM
HT-1197 cells; Homo sapiens, HT1197, 72 h
  IC50: 2.1 µM

## NCCOc1ccc(Nc2c(C(=O)C3CC3)cnc3ccc(-c4cc(F)c(O)c(Cl)c4)cc23)cn1 [Example 724, (4-(6-(2-Aminoethoxy)pyridin-3-ylamino)-6-(3-chloro-5-fluoro-4-hydroxyphenyl)quinolin-3-yl)(cyclopropyl)methanone]
MELK
  IC50: 0.0055 µM
T47D cells
  IC50: 0.07 µM
DU4475 cells
  IC50: 0.035 µM
A549 cells
  IC50: 0.23 µM
HT-1197 cells; Homo sapiens, HT1197, 72 h
  IC50: 2.8 µM

## NC1CCCN(c2ccc(Nc3c(C(=O)C4CC4)cnc4ccc(-c5cc(F)c(O)c(F)c5)cc34)cn2)C1 (stereo not drawn) [Example 725, (4-(6-(3-Aminopiperidin-1-yl)pyridin-3-ylamino)-6-(3,5-difluoro-4-hydroxyphenyl)quinolin-3-yl)(cyclopropyl)methanone]
MELK
  IC50: 0.003 µM
T47D cells
  IC50: 0.0078 µM
DU4475 cells
  IC50: 0.01 µM
A549 cells
  IC50: 0.012 µM
HT-1197 cells; Homo sapiens, HT1197, 72 h
  IC50: 0.11 µM

## O=C(c1cnc2ccc(-c3cc(Cl)c(O)c(Cl)c3)cc2c1NC1CCNCC1)C1CC1 [Example 726, cyclopropyl(6-(3,5-dichloro-4-hydroxypheny)-4-(piperidin-4-ylamino)quinolin-3-yl)methanone]
MELK
  IC50: 0.0057 µM
T47D cells
  IC50: 0.56 µM
DU4475 cells
  IC50: 0.14 µM
A549 cells
  IC50: 0.52 µM
HT-1197 cells; Homo sapiens, HT1197, 72 h
  IC50: 2.4 µM

## COc1cc(-c2ccc3ncc(C(=O)C4CC4)c(NC4CCNCC4)c3c2)cc(Cl)c1O [Example 727, (6-(3-chloro-4-hydroxy-5-methoxyphenyl)-4-(piperidin-4-ylamino)quinolin-3-yl)(cyclopropyl)methanone]
MELK
  IC50: 0.0034 µM
T47D cells
  IC50: 0.37 µM
DU4475 cells
  IC50: 0.14 µM
A549 cells
  IC50: 0.19 µM
HT-1197 cells; Homo sapiens, HT1197, 72 h
  IC50: 1.1 µM

## CC(=O)c1cnc2ccc(-c3cc(Cl)c(O)c(Cl)c3)cc2c1N[C@@H]1CC[C@@H](CN2CCN(C)CC2)C1 [Example 728, 1-(6-(3,5-dichloro-4-hydroxyphenyl)-4-((1R,3R)-3-((4-methylpiperazin-1-yl)methyl)cyclopentylamino)quinolin-3-yl)ethanone]
MELK
  IC50: 0.0057 µM
T47D cells
  IC50: 0.83 µM
DU4475 cells
  IC50: 0.48 µM
A549 cells
  IC50: 0.85 µM
HT-1197 cells; Homo sapiens, HT1197, 72 h
  IC50: 5.7 µM

## CC(=O)c1cnc2ccc(-c3cc(Cl)c(O)c(Cl)c3)cc2c1Nc1cccc(CCN(C)C)c1 [Example 729, 1-{6-(3,5-Dichloro-4-hydroxyphenyl)-4-[3-(2-(dimethylamino)ethyl)phenylamino]quinolin-3-yl}ethanone]
MELK
  IC50: 0.0022 µM
T47D cells
  IC50: 0.52 µM
DU4475 cells
  IC50: 0.1 µM
A549 cells
  IC50: 0.2 µM
HT-1197 cells; Homo sapiens, HT1197, 72 h
  IC50: 10 µM

## COc1cc(-c2ccc3ncc(C(C)=O)c(Nc4cccc(CCN(C)C)c4)c3c2)cc(Cl)c1O [Example 730, 1-(6-(3-chloro-4-hydroxy-5-methoxyphenyl)-4-(3-(2-(dimethylamino)ethyl)phenylamino)quinolin-3-yl)ethanone]
MELK
  IC50: 0.0026 µM
T47D cells
  IC50: 2.1 µM
DU4475 cells
  IC50: 0.69 µM
A549 cells
  IC50: 0.82 µM
HT-1197 cells; Homo sapiens, HT1197, 72 h
  IC50: 8 µM

## CC(=O)c1cnc2ccc(-c3cc(F)c(O)c(Cl)c3)cc2c1N[C@H]1CC[C@H](CN2CCCC2)CC1 [Example 731]
MELK
  IC50: 0.0047 µM
T47D cells
  IC50: 0.11 µM
DU4475 cells
  IC50: 0.13 µM
A549 cells
  IC50: 0.17 µM
HT-1197 cells; Homo sapiens, HT1197, 72 h
  IC50: 1.3 µM

## CC(=O)c1cnc2ccc(-c3cc(F)c(O)c(Cl)c3)cc2c1Nc1ccc(N2CCCC(N)C2)nc1 (stereo not drawn) [Example 732, 1-(4-(6-(3-aminopiperidin-1-yl)pyridin-3-ylamino)-6-(3-chloro-5-fluoro-4-hydroxyphenyl)quinolin-3-yl)ethanone]
MELK
  IC50: 0.0017 µM
T47D cells
  IC50: 0.0056 µM
DU4475 cells
  IC50: 0.0099 µM
A549 cells
  IC50: 0.0094 µM
HT-1197 cells
  IC50: 0.18 µM
